The values below are quoted from earlier work in patent publication US9622975B2, “Pharmaceutical composition” (Novartis AG, priority 2005, dated 2017).

The conditions of data set [1]: especially in the alkaline conditions of the intestine.
The conditions of data set [2]: in vivo.

`O=C(O)CCCCCCCNC(=O)c1cc(Cl)ccc1O` [Example 5-CNAC, N-(5-chlorosalicyloyl)-8-aminocaprylic acid]: in data set [1], the water solubility entry was “very water soluble”.

For the compound `O=C(O)CCCCCCCNC(=O)c1ccccc1O` [SNAC, N-(8-[2-hydroxybenzoyl]amino) caprylic acid], the water solubility entry in data set [1] is on record as “very water soluble”.

Take `O=C(O)CCCCCCCCCNC(=O)c1ccccc1O` [SNAD, N-(10-[2-hydroxybenzoyl]amino) decanoic acid]: the “absorbed by the gastro-intestinal tract” value in data set [2] is listed as “greater than 90%”.
